{
  "source": "patent US20240139236A1",
  "about": "“COPPER HISTIDINATE COMPOSITIONS AND USES THEREOF” (Cyprium Therapeutics, Inc., priority 2021, published 2024)",
  "key": {"Menkes disease subjects": {"system": "Menkes disease subjects", "assay": "Long term follow up of Menkes disease patients treated with copper histidinate (survival)", "assay_type": "in vivo, human", "settings": "early treatment vs untreated historical controls", "description": "During the study patients were administered does of copper histidinate as follows: 1450 μg subcutaneous BID in infants up to 12 months of age, and 1450 μg subcutaneous QD for infants and children older than 12 months.\nThis study was designed as a long term follow up on patients previously identified and/or enrolled in previous studies for the treatment of Menkes disease with copper histidinate and untreated patients to determine survival, neurological development, quality of life status and adverse events. This study followed the patients from the previous examples for long term follow up.\nPatients previously enrolled in clinical trials for the treatment of Menkes disease with copper histidinate were assessed for survival status, neurological development status and quality of life. No drug was be administered during this study."}, "[1]": {"system": "classic Menkes disease patients", "assay": "Subcutaneous copper histidinate treatment of Menkes patients (serum copper, renal safety monitoring)", "assay_type": "in vivo, human", "settings": "1450 μg SC BID younger than 12 months, QD older than 12 months", "description": "The purpose of this study was to allow currently enrolled participants to complete a three-year course of subcutaneous copper histidinate treatment under a previous protocol. It was hypothesized that subcutaneous injections of this drug will raise serum copper levels and ceruloplasmin levels in enrolled participants, improve neurodevelopmental and neurological outcomes, and reduce mortality compared to untreated affected subjects. The broad overall hypothesis of this treatment study is that subcutaneous copper histidinate injections will normalize circulating copper levels and provide health benefits to individuals with copper deficiency due to genetic abnormalities such as classic Menkes disease or which is unexplained. The trial represents an open-label design in which all enrolled subjects receive subcutaneous injections of copper histidinate. Immediate potential benefits of Copper Histidinate treatment in classic Menkes disease include protection against seizure activity and accrual of neurodevelopmental skills in an age-appropriate fashion. Long-term potential benefits include enhanced lifespan and quality of life, as noted in other subjects with classic Menkes disease treated with Copper Histidinate. […]"}, "[2]": {"system": "classic Menkes disease patients", "settings": "cited from earlier work"}},
  "data": [
    {"smiles": "N[C@@H](Cc1cnc[nH]1)C(=O)[O-].N[C@@H](Cc1cnc[nH]1)C(=O)[O-].[Cu+2]", "note": "[copper histidinate, (2S)-2-amino-3-(1H-imidazol-5-yl) propanoic acid, Copper]", "values": [
      {"measurement": "reduction in the risk of death", "setting": "Menkes disease subjects", "result": "~80", "unit": "%"},
      {"measurement": "hazard ratio (risk of death)", "setting": "Menkes disease subjects; p<0.00001", "result": 0.21},
      {"measurement": "serum copper levels under the standard dosing regimen", "setting": "[1]", "result": "maintains serum copper levels in the normal range"},
      {"measurement": "renal tubular injury caused by copper histidinate", "setting": "[2]", "result": "reversible"}
    ]}
  ]
}
